From patent US20140323418A1, “SELECTIVE KINASE INHIBITORS” (PORTOLA PHARMACEUTICALS, INC., priority 2011, published 2014) come the findings set out here.

Bounds are passed on as bounds.

In this assay the target is T1, full length active recombinant SYK enzyme (Homo sapiens, UniProt P43405).
T1 construct: full length active recombinant SYK enzyme (Millipore, Calif.); purchased Millipore
As to the kind of experiment: Inhibition of Syk tyrosine phosphorylation activity (LANCE TR-FRET kinase assay). It is filed as biochemical. Particulars: 1 nM SYK, 550 nM substrate, 100 μM ATP, 1 hour room temperature.
In the case of `NC(=O)c1cnc(N[C@@H]2CCCC[C@@H]2N)nc1Nc1cccc(-n2ncc[n+]2[O-])c1` [Example 251, 2-(3-((2-(((1R,2S)-2-aminocyclohexyl)amino)-5-carbamoylpyrimidin-4-yl)amino)phenyl)-2H-1,2,3-triazole 1-oxide], the IC50 fell in the range of 0.01 to 0.1 µM.
In the case of `NC(=O)c1cnc(N[C@H](C2CC2)C2(N)CC2)nc1Nc1cccc(-n2cccn2)c1` [Example 151, (R)-4-(3-(1H-pyrazol-1-yl)phenylamino)-2-(1-(1-aminocyclopropyl)(cyclopropyl)methylamino)pyrimidine-5-carboxamide], the IC50 lay within 0.001 to 0.01 µM.
Under `Cc1cccc(Nc2nc(N[C@@H]3CC[C@@H](C(=O)N4CCCC4)C[C@@H]3N)ncc2C(N)=O)c1` (racemic) [Example 193, 2-((1R,2S,4R)-2-amino-4-(pyrrolidine-1-carbonyl)cyclohexylamino)-4-(m-tolylamino)pyrimidine-5-carboxamide] stands 0.01 to 0.1 µM.
Under `NC(=O)c1cnc(N[C@H]2CCCNC2)nc1Nc1cnc2ccccc2c1` [Example 215, (S)-2-(piperidin-3-ylamino)-4-(quinolin-3-ylamino)pyrimidine-5-carboxamide] stands 0.1 to 1 µM.
Under `CCn1ccc2c(Nc3nc(N[C@@H]4CCCC(F)(F)[C@@H]4N)ncc3C(N)=O)cccc21` [Example 92, 2-((1R,2R)-2-amino-3,3-difluorocyclohexylamino)-4-(1-ethyl-1H-indol-4-ylamino)pyrimidine-5-carboxamide] stands 0.01 to 0.1 µM.
As to `NC(=O)c1cnc(N[C@H](c2ccccc2)C2(N)CC2)nc1Nc1cccc(-n2nccn2)c1` [Example 149, (R)-4-(3-(2H-1,2,3-triazol-2-yl)phenylamino)-2-(1-(1-aminocyclopropyl)(phenyl)methylamino)pyrimidine-5-carboxamide], the IC50 fell in the range of 0.01 to 0.1 µM.
With `COc1cccc(Nc2nc(N[C@H](CC(C)C)C(N)=O)ncc2C(N)=O)c1` [Example 62, (R)-2-((1-amino-4-methyl-1-oxopentan-2-yl)amino)-4-((3-methoxyphenyl)amino)pyrimidine-5-carboxamide] the figure was 0.01 to 0.1 µM; with `NC(=O)c1cnc(N[C@@H]2CCCC[C@@H]2N)nc1Nc1cnn2ccccc12` [Example 43, 2-(((1R,2S)-2-aminocyclohexyl)amino)-4-(pyrazolo[1,5-a]pyridin-3-ylamino)pyrimidine-5-carboxamide], 0.001 to 0.01 µM.
Under `NC(=O)c1cnc(N[C@@H]2CCCC(F)(F)[C@@H]2N)nc1Nc1ccc2ncsc2c1` [Example 29, 2-(((1R,2R)-2-amino-3,3-difluorocyclohexyl)amino)-4-(benzo[d]thiazol-6-ylamino)pyrimidine-5-carboxamide] stands 0.01 to 0.1 µM; under `CC1=C[C@@H](Nc2ncc(C(N)=O)c(Nc3cccc(-n4nccn4)c3)n2)CN1` [Example 227], 0.1 to 1 µM; under `NC(=O)c1cnc(N[C@@H]2CCCC[C@@H]2n2ccnn2)nc1Nc1cccc(-n2nccn2)c1` [Example 9, 2-((1R,2S)-2-(1H-1,2,3-triazol-1-yl)cyclohexylamino)-4-(3-(2H-1,2,3-triazol-2-yl)phenylamino)pyrimidine-5-carboxamide], 0.1 to 1 µM.
For the compound `NC(=O)c1cnc(N[C@H]2[C@@H](N)CCCC2(F)F)nc1Nc1cccc(-n2cccn2)c1` [Example 34, 4-((3-(1H-pyrazol-1-yl)phenyl)amino)-2-(((1S,6S)-6-amino-2,2-difluorocyclohexyl)amino)pyrimidine-5-carboxamide], the 50% inhibitory concentration (IC50) lay within 0.001 to 0.01 µM.
Under `CC(C)[C@@H](Nc1ncc(C(N)=O)c(Nc2ccc3cccnc3c2)n1)C(N)=O` [Example 77, (R)-2-(1-amino-3-methyl-1-oxobutan-2-ylamino)-4-(quinolin-7-ylamino)pyrimidine-5-carboxamide] stands 0.1 to 1 µM; under `NC(=O)c1cnc(N[C@@H]2CCC[C@H](F)[C@@H]2N)nc1Nc1cccc(-n2cccn2)c1` [Example 238, 4-(3-(1H-pyrazol-1-yl)phenylamino)-2-((1R,2R,3S)-2-amino-3-fluorocyclohexylamino)pyrimidine-5-carboxamide], 0.01 to 0.1 µM.
As to `Cc1cccc(Nc2nc(NC3(CN)CC3)ncc2C(N)=O)c1` [Example 117, 4-(m-toluidino)-2-(1-(aminomethyl)cyclopropylamino)pyrimidine-5-carboxamide], the half-inhibitory concentration (IC50) lay in the range of 0.01 to 0.1 µM.
Under `Cc1nsc(Nc2nc(N[C@@H]3CCCC[C@@H]3N)ncc2C(N)=O)c1I` [Example 231, 2-(((1R,2S)-2-aminocyclohexyl)amino)-4-((4-iodo-3-methylisothiazol-5-yl)amino)pyrimidine-5-carboxamide] stands 0.01 to 0.1 µM; under `Cc1cccc(Nc2nc(N[C@@H]3CC[C@@H](C(=O)N(C)C)C[C@@H]3N)ncc2C(N)=O)c1` (racemic) [Example 190, 2-((1R,2S,4R)-2-amino-4-(dimethylcarbamoyl)cyclohexylamino)-4-(m-tolylamino)pyrimidine-5-carboxamide], 0.001 to 0.01 µM; under `Cc1cncc(Nc2nc(N[C@@H]3CCCC[C@@H]3N)ncc2C(N)=O)c1` [Example 46, 2-(((1R,2S)-2-aminocyclohexyl)amino)-4-((5-methylpyridin-3-yl)amino)pyrimidine-5-carboxamide], 0.01 to 0.1 µM.
`NC(=O)c1cnc(NC2CCCc3cccnc32)nc1Nc1cccc(-n2nccn2)c1` (racemic) [Example 18, 4-(3-(2H-1,2,3-triazol-2-yl)phenylamino)-2-(5,6,7,8-tetrahydroquinolin-8-ylamino)pyrimidine-5-carboxamide]: the IC50 was 0.1 to 1 µM.
As to `NC(=O)c1cnc(N[C@@H]2CCOC[C@@H]2N)nc1Nc1ccc(Cl)cc1` [Example 51, 2-(((3R,4R)-3-aminotetrahydro-2H-pyran-4-yl)amino)-4-((4-chlorophenyl)amino)pyrimidine-5-carboxamide], the IC50 lay in the range of 0.01 to 0.1 µM.
As for `NC(=O)c1cnc(N[C@@H]2CCCC[C@@H]2N)nc1Nc1cccc(-n2ncc(O)n2)c1` [Example 252, 2-(((1R,2S)-2-aminocyclohexyl)amino)-4-((3-(4-hydroxy-2H-1,2,3-triazol-2-yl)phenyl)amino)pyrimidine-5-carboxamide], the IC50 fell in the range of 0.001 to 0.01 µM.
Under `NC(=O)c1cnc(Nc2ccc(Cl)cc2)nc1N[C@H]1CC[C@@H](N)CC1` [Example 186, 4-(4-aminocyclohexylamino)-2-(4-chlorophenylamino)pyrimidine-5-carboxamide] stands 0.01 to 0.1 µM; under `NC(=O)c1cnc(N[C@H](C2CC2)C2(N)CC2)nc1Nc1cc(F)cc(F)c1` [Example 157, (R)-2-(1-(1-aminocyclopropyl)(cyclopropyl)methylamino)-4-(3,5-difluorophenylamino)pyrimidine-5-carboxamide], 0.01 to 0.1 µM.
As for `NC(=O)c1cnc(N[C@@H]2CCCC(F)(F)[C@@H]2N)nc1Nc1ccc2ncccc2c1` [Example 169, 2-((1R,2R)-2-amino-3,3-difluorocyclohexylamino)-4-(quinolin-6-ylamino)pyrimidine-5-carboxamide], the IC50 was in the range of 0.01 to 0.1 µM.
Under `CCn1ccc2c(Nc3nc(NC(C)C)ncc3C(N)=O)cccc21` [Example 115, 4-(1-ethyl-1H-indol-4-ylamino)-2-(isopropylamino)pyrimidine-5-carboxamide] stands 0.1 to 1 µM; under `COc1cccc(Nc2nc(N[C@H](CC3CC3)C(N)=O)ncc2C(N)=O)c1` [Example 63, (R)-2-((1-amino-3-cyclopropyl-1-oxopropan-2-yl)amino)-4-((3-methoxyphenyl)amino)pyrimidine-5-carboxamide], 0.1 to 1 µM.
Under `Cn1ccc2c(Nc3nc(NC[C@@H](N)CC(F)F)ncc3C(N)=O)ccnc21` [Example 94, (S)-2-(2-amino-4,4-difluorobutylamino)-4-(1-methyl-1H-pyrrolo[2,3-b]pyridin-4-ylamino)pyrimidine-5-carboxamide] stands 0.001 to 0.01 µM; under `NC(=O)c1cnc(N[C@@H]2CCOC[C@@H]2N)nc1Nc1cnc2ccccc2c1` [Example 177, 2-((3R,4R)-3-aminotetrahydro-2H-pyran-4-ylamino)-4-(quinolin-3-ylamino)pyrimidine-5-carboxamide], 0.01 to 0.1 µM; under `CC[C@@H](Nc1ncc(C(N)=O)c(Nc2cccc(-n3cccn3)c2)n1)C1(N)CC1` [Example 132, (R)-4-(3-(1H-pyrazol-1-yl)phenylamino)-2-(1-(1-aminocyclopropyl)propylamino)pyrimidine-5-carboxamide], 0.001 to 0.01 µM.
With `N#CCN1CC[C@@H](Nc2ncc(C(N)=O)c(Nc3cccc(-n4nccn4)c3)n2)C1` [Example 224] the figure was 0.1 to 1 µM; with `NC(=O)c1cnc(N[C@@H]2CCC[C@H](F)[C@@H]2N)nc1Nc1cnc2ccccc2c1` [Example 241, 2-((1R,2R,3S)-2-amino-3-fluorocyclohexylamino)-4-(quinolin-3-ylamino)pyrimidine-5-carboxamide], 0.1 to 1 µM; with `Cc1cccc(Nc2nc(NCC(N)CC(F)F)ncc2C(N)=O)c1` (stereo not drawn) [Example 206], 0.01 to 0.1 µM.
On to `Cc1cccc(Nc2nc(N[C@H]3CN[C@H](C(=O)N(C)C)C3)ncc2C(N)=O)c1` [Example 219, 2-(((3R,5S)-5-(dimethylcarbamoyl)pyrrolidin-3-yl)amino)-4-(m-tolylamino)pyrimidine-5-carboxamide], for which the IC50 was more than 1 µM.
With `NC(=O)c1cnc(N[C@@H]2CCOC[C@@H]2N)nc1Nc1ccc2ncccc2c1` [Example 180, 2-((3R,4R)-3-aminotetrahydro-2H-pyran-4-ylamino)-4-(quinolin-6-ylamino)pyrimidine-5-carboxamide] the figure was 0.001 to 0.01 µM; with `CCn1ccc2c(Nc3nc(Nc4ccc5c(c4)CC(=O)N5)ncc3C(N)=O)cccc21` [Example 113, 4-(1-ethyl-1H-indol-4-ylamino)-2-(2-oxoindolin-5-ylamino)pyrimidine-5-carboxamide], 0.01 to 0.1 µM; with `CC(C)C[C@@H](Nc1ncc(C(N)=O)c(Nc2cccc(-n3cccn3)c2)n1)C1(N)CC1` [Example 139, (R)-4-(3-(1H-pyrazol-1-yl)phenylamino)-2-(1-(1-aminocyclopropyl)-3-methylbutylamino)pyrimidine-5-carboxamide], 0.001 to 0.01 µM.
